Publication PMC7385619, “A triple action CDK4/6-PI3K-BET inhibitor with augmented cancer cell cytotoxicity” (Cell Discovery, 2020)
Like-named read-outs stand apart in the source and are kept apart here.

Key:
Test in all cases: KINOMEscan assay (Eurofins DiscoverX)
Format in all cases: binding
kinome (kinase panel) [1] = biological target: T1, kinome (kinase panel) (Homo sapiens, UniProt P54760); settings: EPHB4; 1000 nM; read-out: Percent Control
T1 construct: purchased Eurofins DiscoverX

kinome (kinase panel) [2] = biological target: T2, kinome (kinase panel) (Homo sapiens, UniProt P31751); settings: AKT2; 1000 nM; read-out: Percent Control
T2 construct: purchased Eurofins DiscoverX

kinome (kinase panel) [3] = biological target: T3, kinome (kinase panel) (Homo sapiens, UniProt Q8NEV4); settings: MYO3A; 1000 nM; read-out: Percent Control
T3 construct: purchased Eurofins DiscoverX

kinome (kinase panel) [4] = biological target: T4, kinome (kinase panel) (Homo sapiens, UniProt Q9H093); settings: SNARK (NUAK2); 1000 nM; read-out: Percent Control
T4 construct: purchased Eurofins DiscoverX

kinome (kinase panel) [5] = biological target: T5, kinome (kinase panel) (Homo sapiens, UniProt O14965); settings: AURKA; 1000 nM; read-out: Percent Control
T5 construct: purchased Eurofins DiscoverX

kinome (kinase panel) [6] = biological target: T6, kinome (kinase panel) (Homo sapiens, UniProt Q9UM73, L1196M); settings: […]; 1000 nM; read-out: Percent Control
T6 construct: purchased Eurofins DiscoverX

kinome (kinase panel) [7] = biological target: T7, kinome (kinase panel) (Homo sapiens, UniProt Q6ZWH5); settings: NEK10; 1000 nM; read-out: Percent Control
T7 construct: purchased Eurofins DiscoverX

kinome (kinase panel) [8] = biological target: T8, kinome (kinase panel) (Homo sapiens, UniProt P36897); settings: TGFBR1; 1000 nM; read-out: Percent Control
T8 construct: purchased Eurofins DiscoverX

kinome (kinase panel) [9] = biological target: T9, kinome (kinase panel) (Homo sapiens, UniProt P10721, D816V); settings: […]; 1000 nM; read-out: Percent Control
T9 construct: purchased Eurofins DiscoverX

kinome (kinase panel) [10] = biological target: T10, kinome (kinase panel) (Homo sapiens, UniProt P10721, T670I/V559D); settings: read-out: Percent Control
T10 construct: purchased Eurofins DiscoverX

kinome (kinase panel) [11] = biological target: T11, kinome (kinase panel) (Homo sapiens, UniProt Q15418); settings: 1000 nM, read-out: Percent Control
T11 construct: purchased Eurofins DiscoverX

kinome (kinase panel) [12] = biological target: T12, kinome (kinase panel) (Homo sapiens, UniProt Q13546); settings: RIPK1; 1000 nM; read-out: Percent Control
T12 construct: purchased Eurofins DiscoverX

kinome (kinase panel) [13] = biological target: T13, kinome (kinase panel) (Homo sapiens, UniProt Q9UBE8); settings: NLK; 1000 nM; read-out: Percent Control
T13 construct: purchased Eurofins DiscoverX

kinome (kinase panel) [14] = biological target: T14, kinome (kinase panel) (Homo sapiens, UniProt Q8IVW4); settings: CDKL3; 1000 nM; read-out: Percent Control
T14 construct: purchased Eurofins DiscoverX

kinome (kinase panel) [15] = biological target: T15, kinome (kinase panel) (Homo sapiens, UniProt P08631); settings: HCK; 1000 nM; read-out: Percent Control
T15 construct: purchased Eurofins DiscoverX

kinome (kinase panel) [16] = biological target: T16, kinome (kinase panel) (Homo sapiens, UniProt Q8NE63); settings: HIPK4; 1000 nM; read-out: Percent Control
T16 construct: purchased Eurofins DiscoverX

kinome (kinase panel) [17] = biological target: T17, kinome (kinase panel) (Homo sapiens, UniProt P36888); settings: 1000 nM, read-out: Percent Control
T17 construct: purchased Eurofins DiscoverX

kinome (kinase panel) [18] = biological target: T18, kinome (kinase panel) (Homo sapiens, UniProt O15264); settings: p38-delta (Entrez MAPK13); 1000 nM; read-out: Percent Control
T18 construct: purchased Eurofins DiscoverX

kinome (kinase panel) [19] = biological target: T19, kinome (kinase panel) (Homo sapiens, UniProt Q9Y2K2); settings: QSK (Entrez KIAA0999); 1000 nM; read-out: Percent Control
T19 construct: purchased Eurofins DiscoverX

kinome (kinase panel) [20] = biological target: T20, kinome (kinase panel) (Homo sapiens, UniProt Q92630); settings: DYRK2; 1000 nM; read-out: Percent Control
T20 construct: purchased Eurofins DiscoverX

kinome (kinase panel) [21] = biological target: T21, kinome (kinase panel) (Homo sapiens, UniProt P08581); settings: MET; 1000 nM; read-out: Percent Control
T21 construct: purchased Eurofins DiscoverX

kinome (kinase panel) [22] = biological target: T22, kinome (kinase panel) (Homo sapiens, UniProt P07949, V804L); settings: read-out: Percent Control
T22 construct: purchased Eurofins DiscoverX

kinome (kinase panel) [23] = biological target: T23, kinome (kinase panel) (Homo sapiens, UniProt Q00537); settings: PCTK2 (Entrez CDK17); 1000 nM; read-out: Percent Control
T23 construct: purchased Eurofins DiscoverX

kinome (kinase panel) [24] = biological target: T24, kinome (kinase panel) (Homo sapiens, UniProt Q9Y2U5); settings: MAP3K2; 1000 nM; read-out: Percent Control
T24 construct: purchased Eurofins DiscoverX

kinome (kinase panel) [25] = biological target: T25, kinome (kinase panel) (Homo sapiens, UniProt Q8TDR2); settings: STK35; 1000 nM; read-out: Percent Control
T25 construct: purchased Eurofins DiscoverX

kinome (kinase panel) [26] = biological target: T26, kinome (kinase panel) (Homo sapiens, UniProt Q8IYT8); settings: ULK2; 1000 nM; read-out: Percent Control
T26 construct: purchased Eurofins DiscoverX

kinome (kinase panel) [27] = biological target: T27, kinome (kinase panel) (Homo sapiens, UniProt Q13163); settings: MEK5 (Entrez MAP2K5); 1000 nM; read-out: Percent Control
T27 construct: purchased Eurofins DiscoverX

kinome (kinase panel) [28] = biological target: T28, kinome (kinase panel) (Homo sapiens, UniProt P35916); settings: FLT4; 1000 nM; read-out: Percent Control
T28 construct: purchased Eurofins DiscoverX

kinome (kinase panel) [29] = biological target: T29, kinome (kinase panel) (Homo sapiens, UniProt P06241); settings: FYN; 1000 nM; read-out: Percent Control
T29 construct: purchased Eurofins DiscoverX

kinome (kinase panel) [30] = biological target: T30, kinome (kinase panel) (Homo sapiens, UniProt P42681); settings: TXK; 1000 nM; read-out: Percent Control
T30 construct: purchased Eurofins DiscoverX

kinome (kinase panel) [31] = biological target: T31, kinome (kinase panel) (Homo sapiens, UniProt Q9BWU1); settings: CDK11 (Entrez CDK19); 1000 nM; read-out: Percent Control
T31 construct: purchased Eurofins DiscoverX

kinome (kinase panel) [32] = biological target: T32, kinome (kinase panel) (Homo sapiens, UniProt Q9H4B4); settings: PLK3; 1000 nM; read-out: Percent Control
T32 construct: purchased Eurofins DiscoverX

T17 sequence (P36888 27-993): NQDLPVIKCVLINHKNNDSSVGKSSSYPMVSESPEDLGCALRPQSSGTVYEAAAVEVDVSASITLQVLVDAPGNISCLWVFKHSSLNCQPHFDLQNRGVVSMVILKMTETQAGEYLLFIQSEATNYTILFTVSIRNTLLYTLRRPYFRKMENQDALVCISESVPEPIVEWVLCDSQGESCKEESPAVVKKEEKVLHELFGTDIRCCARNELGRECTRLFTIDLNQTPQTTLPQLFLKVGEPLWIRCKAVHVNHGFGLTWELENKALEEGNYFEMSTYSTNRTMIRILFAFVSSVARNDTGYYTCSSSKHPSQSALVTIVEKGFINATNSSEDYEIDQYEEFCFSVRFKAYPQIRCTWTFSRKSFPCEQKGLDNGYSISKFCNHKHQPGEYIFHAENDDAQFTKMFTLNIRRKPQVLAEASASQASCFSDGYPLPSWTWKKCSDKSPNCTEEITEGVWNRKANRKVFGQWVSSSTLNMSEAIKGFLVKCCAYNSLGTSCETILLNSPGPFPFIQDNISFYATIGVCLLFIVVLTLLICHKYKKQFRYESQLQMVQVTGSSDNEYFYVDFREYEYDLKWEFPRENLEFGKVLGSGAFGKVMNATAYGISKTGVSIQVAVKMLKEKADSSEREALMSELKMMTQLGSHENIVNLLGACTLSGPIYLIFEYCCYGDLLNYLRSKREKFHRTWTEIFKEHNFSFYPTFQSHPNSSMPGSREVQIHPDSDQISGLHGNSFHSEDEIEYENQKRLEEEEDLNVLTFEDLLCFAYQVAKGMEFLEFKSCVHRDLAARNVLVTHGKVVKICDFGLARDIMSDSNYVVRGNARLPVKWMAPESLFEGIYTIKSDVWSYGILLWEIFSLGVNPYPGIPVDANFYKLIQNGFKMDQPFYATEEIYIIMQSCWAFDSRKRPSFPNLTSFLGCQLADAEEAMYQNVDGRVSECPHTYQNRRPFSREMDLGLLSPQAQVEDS
T11 sequence (Q15418 whole entry): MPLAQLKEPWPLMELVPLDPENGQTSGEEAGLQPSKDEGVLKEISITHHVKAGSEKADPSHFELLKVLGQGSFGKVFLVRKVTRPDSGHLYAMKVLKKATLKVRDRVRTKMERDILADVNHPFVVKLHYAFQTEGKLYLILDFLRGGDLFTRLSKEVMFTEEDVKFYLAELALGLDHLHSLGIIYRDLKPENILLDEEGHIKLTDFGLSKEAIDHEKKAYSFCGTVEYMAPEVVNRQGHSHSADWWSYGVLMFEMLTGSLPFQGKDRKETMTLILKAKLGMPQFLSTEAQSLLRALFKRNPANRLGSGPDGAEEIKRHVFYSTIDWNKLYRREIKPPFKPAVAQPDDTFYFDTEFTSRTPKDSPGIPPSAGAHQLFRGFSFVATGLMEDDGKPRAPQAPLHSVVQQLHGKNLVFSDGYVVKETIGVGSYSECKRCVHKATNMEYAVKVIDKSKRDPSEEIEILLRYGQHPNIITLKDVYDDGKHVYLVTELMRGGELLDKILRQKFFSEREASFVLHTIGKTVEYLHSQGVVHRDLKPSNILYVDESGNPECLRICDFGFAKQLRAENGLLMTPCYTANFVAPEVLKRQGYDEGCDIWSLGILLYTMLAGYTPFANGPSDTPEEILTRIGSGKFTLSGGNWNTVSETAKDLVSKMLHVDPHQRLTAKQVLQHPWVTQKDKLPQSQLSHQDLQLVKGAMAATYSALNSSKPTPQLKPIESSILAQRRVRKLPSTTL
T21 sequence (P08581 25-1390): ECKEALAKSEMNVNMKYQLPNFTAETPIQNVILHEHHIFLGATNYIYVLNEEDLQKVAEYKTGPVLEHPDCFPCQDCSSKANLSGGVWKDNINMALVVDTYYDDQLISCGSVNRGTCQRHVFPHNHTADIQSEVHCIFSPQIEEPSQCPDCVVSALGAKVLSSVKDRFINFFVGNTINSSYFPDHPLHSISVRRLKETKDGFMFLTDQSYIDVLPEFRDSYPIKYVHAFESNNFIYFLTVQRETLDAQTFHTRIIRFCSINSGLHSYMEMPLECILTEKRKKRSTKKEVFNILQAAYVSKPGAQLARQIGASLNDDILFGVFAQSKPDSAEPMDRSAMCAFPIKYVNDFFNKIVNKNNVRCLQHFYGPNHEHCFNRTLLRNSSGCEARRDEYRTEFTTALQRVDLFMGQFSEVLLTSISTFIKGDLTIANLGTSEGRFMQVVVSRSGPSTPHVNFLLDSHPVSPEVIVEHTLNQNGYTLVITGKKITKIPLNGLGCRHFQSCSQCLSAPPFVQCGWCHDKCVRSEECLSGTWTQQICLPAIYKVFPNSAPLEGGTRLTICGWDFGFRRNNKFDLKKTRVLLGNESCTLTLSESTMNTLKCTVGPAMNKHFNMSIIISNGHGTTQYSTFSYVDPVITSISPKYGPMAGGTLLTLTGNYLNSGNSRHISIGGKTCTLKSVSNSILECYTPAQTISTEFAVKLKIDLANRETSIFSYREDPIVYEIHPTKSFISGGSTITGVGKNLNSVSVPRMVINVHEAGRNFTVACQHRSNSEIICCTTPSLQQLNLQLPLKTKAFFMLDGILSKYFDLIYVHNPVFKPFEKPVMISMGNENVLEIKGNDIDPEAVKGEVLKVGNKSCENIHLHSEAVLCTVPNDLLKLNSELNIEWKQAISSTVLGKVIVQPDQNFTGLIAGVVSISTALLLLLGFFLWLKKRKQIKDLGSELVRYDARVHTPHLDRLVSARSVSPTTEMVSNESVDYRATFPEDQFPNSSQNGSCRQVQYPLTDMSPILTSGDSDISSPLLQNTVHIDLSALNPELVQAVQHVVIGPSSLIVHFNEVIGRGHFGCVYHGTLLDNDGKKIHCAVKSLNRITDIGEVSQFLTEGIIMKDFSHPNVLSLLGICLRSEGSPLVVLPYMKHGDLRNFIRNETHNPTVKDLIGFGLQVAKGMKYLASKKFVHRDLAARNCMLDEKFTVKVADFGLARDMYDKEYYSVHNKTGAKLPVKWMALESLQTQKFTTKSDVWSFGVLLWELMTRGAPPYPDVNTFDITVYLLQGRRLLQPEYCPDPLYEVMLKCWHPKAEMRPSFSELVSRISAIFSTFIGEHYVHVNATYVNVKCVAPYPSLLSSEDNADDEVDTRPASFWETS
T6 sequence (Q9UM73 19-1620 L1196M): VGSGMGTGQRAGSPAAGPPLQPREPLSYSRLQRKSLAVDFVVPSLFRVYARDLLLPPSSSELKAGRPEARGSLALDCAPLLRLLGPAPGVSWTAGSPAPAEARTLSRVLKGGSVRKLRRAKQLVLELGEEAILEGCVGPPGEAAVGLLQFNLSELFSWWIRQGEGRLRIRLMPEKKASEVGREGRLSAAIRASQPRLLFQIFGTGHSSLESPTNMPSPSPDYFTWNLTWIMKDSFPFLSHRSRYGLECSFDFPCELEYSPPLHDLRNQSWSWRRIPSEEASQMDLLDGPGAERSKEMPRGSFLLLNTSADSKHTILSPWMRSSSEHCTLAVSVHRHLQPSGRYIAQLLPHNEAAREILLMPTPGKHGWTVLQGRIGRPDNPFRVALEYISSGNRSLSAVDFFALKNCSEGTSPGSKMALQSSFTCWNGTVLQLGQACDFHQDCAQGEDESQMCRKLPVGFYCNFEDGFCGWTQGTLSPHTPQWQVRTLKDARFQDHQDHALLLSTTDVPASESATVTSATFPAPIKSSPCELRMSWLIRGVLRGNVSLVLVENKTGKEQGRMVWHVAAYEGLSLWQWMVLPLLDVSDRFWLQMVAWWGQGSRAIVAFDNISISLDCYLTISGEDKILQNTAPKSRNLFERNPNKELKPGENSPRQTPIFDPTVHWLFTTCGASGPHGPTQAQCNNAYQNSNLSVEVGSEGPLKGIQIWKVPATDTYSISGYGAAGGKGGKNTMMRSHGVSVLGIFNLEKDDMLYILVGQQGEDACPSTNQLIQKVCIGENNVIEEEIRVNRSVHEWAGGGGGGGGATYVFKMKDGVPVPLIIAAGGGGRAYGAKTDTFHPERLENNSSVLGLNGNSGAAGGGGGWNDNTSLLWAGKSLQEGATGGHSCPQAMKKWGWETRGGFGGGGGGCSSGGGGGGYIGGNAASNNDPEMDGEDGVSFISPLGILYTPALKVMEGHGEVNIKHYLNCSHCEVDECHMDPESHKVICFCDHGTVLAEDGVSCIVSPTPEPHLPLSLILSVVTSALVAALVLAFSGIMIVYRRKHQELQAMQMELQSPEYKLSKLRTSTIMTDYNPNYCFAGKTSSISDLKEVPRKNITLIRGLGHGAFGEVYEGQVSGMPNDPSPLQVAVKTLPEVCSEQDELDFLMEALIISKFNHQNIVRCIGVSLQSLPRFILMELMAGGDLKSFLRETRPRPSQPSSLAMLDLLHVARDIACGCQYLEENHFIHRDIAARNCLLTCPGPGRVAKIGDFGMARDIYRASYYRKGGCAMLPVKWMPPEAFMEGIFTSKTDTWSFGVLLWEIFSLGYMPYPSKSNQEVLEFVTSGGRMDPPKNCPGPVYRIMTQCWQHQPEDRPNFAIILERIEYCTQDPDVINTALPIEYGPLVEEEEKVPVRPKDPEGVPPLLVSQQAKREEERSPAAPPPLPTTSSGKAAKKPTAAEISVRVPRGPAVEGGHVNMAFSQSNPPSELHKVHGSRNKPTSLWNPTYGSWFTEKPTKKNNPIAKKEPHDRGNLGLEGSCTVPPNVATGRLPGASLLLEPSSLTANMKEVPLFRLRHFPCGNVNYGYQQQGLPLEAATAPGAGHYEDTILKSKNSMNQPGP
T27 sequence (Q13163 whole entry): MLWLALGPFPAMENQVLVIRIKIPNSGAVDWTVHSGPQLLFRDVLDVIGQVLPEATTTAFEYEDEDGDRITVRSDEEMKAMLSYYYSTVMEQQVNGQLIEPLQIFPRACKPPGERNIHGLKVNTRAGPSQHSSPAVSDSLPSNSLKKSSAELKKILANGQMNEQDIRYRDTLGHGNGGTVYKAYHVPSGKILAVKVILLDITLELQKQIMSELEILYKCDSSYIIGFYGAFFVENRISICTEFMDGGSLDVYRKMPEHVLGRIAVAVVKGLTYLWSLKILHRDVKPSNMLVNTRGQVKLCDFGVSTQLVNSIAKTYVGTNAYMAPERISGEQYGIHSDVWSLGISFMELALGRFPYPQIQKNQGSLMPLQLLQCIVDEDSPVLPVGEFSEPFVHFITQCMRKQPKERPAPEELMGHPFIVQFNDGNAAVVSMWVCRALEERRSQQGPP

With `CN(C)C(=O)c1cc2cnc(Nc3ccc(-c4csc5c(=O)cc(N6CCOCC6)oc45)cc3)nc2n1C1CCCC1` [SRX3177] the remaining binding at 1 µM (kinome (kinase panel) [1]) was 98%, the remaining binding at 1 µM (kinome (kinase panel) [2]) was 98% and the remaining binding at 1 µM (kinome (kinase panel) [3]) was 97%. For the same molecule, the remaining binding at 1 µM (kinome (kinase panel) [4]) was 70%, the remaining binding at 1 µM (kinome (kinase panel) [5]) was 0% and the remaining binding at 1 µM (kinome (kinase panel) [6]) was 84%. It also gave a remaining binding at 1 µM (kinome (kinase panel) [7]) of 100%, a remaining binding at 1 µM (kinome (kinase panel) [8]) of 100% and a remaining binding at 1 µM (kinome (kinase panel) [9]) of 23%. For the same molecule, the remaining binding at 1 µM (kinome (kinase panel) [10]) was 100%, the remaining binding at 1 µM (kinome (kinase panel) [11]; RSK1(Kin.Dom.1-N-terminal) (RPS6KA1)) was 100% and the remaining binding at 1 µM (kinome (kinase panel) [11]; RSK1(Kin.Dom.2-C-terminal) (RPS6KA1)) was 100%. It also gave a remaining binding at 1 µM (kinome (kinase panel) [12]) of 96%, a remaining binding at 1 µM (kinome (kinase panel) [13]) of 81% and a remaining binding at 1 µM (kinome (kinase panel) [14]) of 91%. It also gave a remaining binding at 1 µM (kinome (kinase panel) [15]) of 100%, a remaining binding at 1 µM (kinome (kinase panel) [16]) of 79% and a remaining binding at 1 µM (kinome (kinase panel) [17]; FLT3-autoinhibited) of 63%. For the same molecule, the remaining binding at 1 µM (kinome (kinase panel) [17]; FLT3) was 26%, the remaining binding at 1 µM (kinome (kinase panel) [18]) was 97% and the remaining binding at 1 µM (kinome (kinase panel) [19]) was 59%. It also gave a remaining binding at 1 µM (kinome (kinase panel) [20]) of 69%, a remaining binding at 1 µM (kinome (kinase panel) [21]) of 80% and a remaining binding at 1 µM (kinome (kinase panel) [22]) of 99%. The remaining binding at 1 µM (kinome (kinase panel) [23]) was 55%, the remaining binding at 1 µM (kinome (kinase panel) [24]) was 72% and the remaining binding at 1 µM (kinome (kinase panel) [25]) was 100%. For the same molecule, the remaining binding at 1 µM (kinome (kinase panel) [26]) was 79%, the remaining binding at 1 µM (kinome (kinase panel) [27]) was 12% and the remaining binding at 1 µM (kinome (kinase panel) [28]) was 88%. For the same molecule, the remaining binding at 1 µM (kinome (kinase panel) [29]) was 96%, the remaining binding at 1 µM (kinome (kinase panel) [30]) was 98% and the remaining binding at 1 µM (kinome (kinase panel) [31]) was 80%. For the same molecule, the remaining binding at 1 µM (kinome (kinase panel) [32]) was 79%.
